The text below walks through data of article PMC1810525, “Antagonism of the prostaglandin D2 receptor CRTH2 attenuates asthma pathology in mouse eosinophilic airway inflammation” (Respiratory Research, 2007).

The target in experiment [1] is T1, C5a (Homo sapiens, UniProt P21730).
T1 sequence (P21730 1-350): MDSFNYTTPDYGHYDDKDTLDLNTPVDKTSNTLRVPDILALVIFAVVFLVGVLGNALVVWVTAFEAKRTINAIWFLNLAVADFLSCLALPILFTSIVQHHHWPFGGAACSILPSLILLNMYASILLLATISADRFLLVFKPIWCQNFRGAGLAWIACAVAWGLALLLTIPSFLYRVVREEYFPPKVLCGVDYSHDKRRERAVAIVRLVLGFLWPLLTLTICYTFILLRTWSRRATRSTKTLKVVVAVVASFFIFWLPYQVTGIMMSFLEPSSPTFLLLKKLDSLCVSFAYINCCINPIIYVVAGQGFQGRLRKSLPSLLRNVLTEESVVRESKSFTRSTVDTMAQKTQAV
Description: Profiling panel, C5a receptor. Conditions: 10 μM, assay type B (binding) per table.
Description: (§2) All assays were performed using recombinant human receptors and enzymes, and included the appropriate controls for assay validation. Enzymatic and binding assays, except for muscarinic binding, were performed by CEREP in vitro pharmacology profiling services. […] For stimulation of C3a, C5a, and ChemR23 receptors in InsP assays the following agonists were used: human recombinant C3a (C3a receptor), human recombinant C5a (C5a receptor), and the nonapeptide Chemerin (ChemR23).

Experiment [2] has as its system DP. Particulars: cited from earlier work.
Experiment [3] concerns the target T2, COX2 (Homo sapiens, UniProt P35354).
T2 sequence (P35354 18-604): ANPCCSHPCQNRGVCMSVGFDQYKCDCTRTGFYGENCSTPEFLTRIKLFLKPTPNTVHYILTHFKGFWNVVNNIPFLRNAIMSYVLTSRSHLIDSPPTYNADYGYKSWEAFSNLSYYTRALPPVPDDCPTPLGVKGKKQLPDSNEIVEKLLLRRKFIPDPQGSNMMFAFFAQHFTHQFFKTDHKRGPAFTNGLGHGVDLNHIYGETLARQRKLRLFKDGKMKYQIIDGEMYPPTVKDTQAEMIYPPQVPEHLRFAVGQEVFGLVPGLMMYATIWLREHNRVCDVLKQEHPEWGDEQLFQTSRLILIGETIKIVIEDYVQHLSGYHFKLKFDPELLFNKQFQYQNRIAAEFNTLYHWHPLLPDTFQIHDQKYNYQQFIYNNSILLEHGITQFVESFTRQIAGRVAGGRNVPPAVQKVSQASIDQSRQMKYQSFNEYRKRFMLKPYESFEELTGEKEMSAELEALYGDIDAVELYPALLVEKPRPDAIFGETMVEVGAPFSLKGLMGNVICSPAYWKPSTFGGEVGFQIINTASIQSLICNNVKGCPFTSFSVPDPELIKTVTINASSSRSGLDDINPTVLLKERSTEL
Description: Profiling panel, enzymatic assay COX2. Type of experiment: biochemical. Conditions: 10 μM.
Description: as §2

Experiment [4] has as its target T3, Glucocorticoid (Homo sapiens, UniProt P04150).
T3 sequence (P04150 1-777): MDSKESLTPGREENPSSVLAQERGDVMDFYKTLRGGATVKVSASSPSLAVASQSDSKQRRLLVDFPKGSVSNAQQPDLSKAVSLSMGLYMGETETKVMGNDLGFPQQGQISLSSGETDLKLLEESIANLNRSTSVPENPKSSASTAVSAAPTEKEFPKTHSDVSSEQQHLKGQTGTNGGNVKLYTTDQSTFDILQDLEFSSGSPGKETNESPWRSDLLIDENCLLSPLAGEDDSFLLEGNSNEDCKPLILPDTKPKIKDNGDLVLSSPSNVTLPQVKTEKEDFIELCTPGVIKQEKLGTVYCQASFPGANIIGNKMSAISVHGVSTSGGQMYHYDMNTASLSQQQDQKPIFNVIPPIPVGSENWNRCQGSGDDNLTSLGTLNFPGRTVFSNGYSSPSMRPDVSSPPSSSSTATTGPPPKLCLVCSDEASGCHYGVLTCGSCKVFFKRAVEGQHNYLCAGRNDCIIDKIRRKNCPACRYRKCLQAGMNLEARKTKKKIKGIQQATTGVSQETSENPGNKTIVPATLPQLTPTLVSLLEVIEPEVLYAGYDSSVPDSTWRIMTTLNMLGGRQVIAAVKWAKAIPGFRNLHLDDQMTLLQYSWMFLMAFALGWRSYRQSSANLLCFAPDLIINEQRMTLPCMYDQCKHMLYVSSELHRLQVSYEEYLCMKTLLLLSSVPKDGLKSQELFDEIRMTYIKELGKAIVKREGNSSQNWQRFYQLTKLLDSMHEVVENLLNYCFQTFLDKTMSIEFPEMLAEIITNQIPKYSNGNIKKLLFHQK
Description: Profiling panel, radioligand binding Glucocorticoid. Conditions: 10 μM.
Description: as §2

Experiment [5] concerns the target T4, CysLT1 (Homo sapiens, UniProt Q9Y271).
T4 sequence (Q9Y271 1-337): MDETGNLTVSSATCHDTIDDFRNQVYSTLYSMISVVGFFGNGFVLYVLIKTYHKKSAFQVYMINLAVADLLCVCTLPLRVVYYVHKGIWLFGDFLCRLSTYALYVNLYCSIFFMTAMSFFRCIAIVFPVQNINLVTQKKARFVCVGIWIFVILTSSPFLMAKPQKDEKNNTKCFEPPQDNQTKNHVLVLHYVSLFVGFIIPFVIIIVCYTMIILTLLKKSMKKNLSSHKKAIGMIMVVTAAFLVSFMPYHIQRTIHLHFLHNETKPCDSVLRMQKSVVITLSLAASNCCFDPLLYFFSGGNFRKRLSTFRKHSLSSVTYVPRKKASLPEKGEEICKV
Description: Profiling panel, radioligand binding CysLT1. Particulars: 10 μM.
Description: as §2

Experiment [6] concerns Phospholipase A2. Conditions: 10 μM, enzymatic. How it is done: (§1) TM30089 was tested at a final concentration of 10 μM in either binding or functional assays on several 7TM receptors, and in enzymatic assays on selected enzymes including those involved in arachidonic acid metabolism. All assays were performed using recombinant human receptors and enzymes, and included the appropriate controls for assay validation. Enzymatic and binding assays, except for muscarinic binding, were performed by CEREP in vitro pharmacology profiling services. Full description of methods and references is available on the CEREP Web site. […] Functional assays were performed using recombinant human receptors and enzymes, and included the appropriate controls for C3a, C5a, ChemR23 receptors by determining the inhibitory potency of TM30089 in InsP assays essentially as described above. For stimulation of C3a, C5a, and ChemR23 receptors in InsP assays the following agonists were used: human recombinant C3a (C3a receptor), human recombinant C5a (C5a receptor), and the nonapeptide Chemerin (ChemR23).

Experiment [7] relates to Muscarinic (non-selective). Conditions: 10 μM, binding, mouse brain homogenate. The protocol: as §1
Experiment [8] deals with Muscarinic (M2-selective) (Sus scrofa, UniProt P06199). Particulars: 10 μM, binding, porcine heart membranes. How it is done: as §1
Chain of Muscarinic (M2-selective) (P06199 whole entry): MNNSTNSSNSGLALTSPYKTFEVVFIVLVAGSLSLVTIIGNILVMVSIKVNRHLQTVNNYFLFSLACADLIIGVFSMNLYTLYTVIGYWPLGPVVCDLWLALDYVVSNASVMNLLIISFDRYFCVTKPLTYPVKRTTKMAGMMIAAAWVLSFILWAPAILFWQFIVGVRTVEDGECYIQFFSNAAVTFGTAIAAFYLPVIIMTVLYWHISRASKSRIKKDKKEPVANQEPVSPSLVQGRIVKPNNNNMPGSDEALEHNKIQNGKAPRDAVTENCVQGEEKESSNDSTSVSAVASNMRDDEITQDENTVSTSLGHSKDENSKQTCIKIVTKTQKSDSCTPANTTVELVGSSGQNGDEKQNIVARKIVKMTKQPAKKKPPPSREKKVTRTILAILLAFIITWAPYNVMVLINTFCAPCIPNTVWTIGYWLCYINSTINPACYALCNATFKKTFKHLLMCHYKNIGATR

For the molecule `CN(C1CCc2c(c3ccccc3n2CC(=O)O)C1)S(=O)(=O)c1ccc(F)cc1` (centres unmarked) [TM30089], in experiment [1], the “% of control C5a” value is given as 108.7 ± 6.3%. Moreover, the “preference for CRTH2 over DP” value in experiment [2] was more than 1000 fold. In addition, the “% of control COX2” value in experiment [3] amounted to 123.8 ± 13.4%. In experiment [4], the “% of control Glucocorticoid” value is reported as 98.9 ± 11.3%. The “% of control CysLT1” value in experiment [5] turned out to be 116.9 ± 10.5%. The “% of control Phospholipase A2” value in experiment [6] is reported as 101.5 ± 1.0%. In addition, in experiment [7], the “% of control Muscarinic (non-selective)” value is 106.7 ± 8.5%. In addition, in experiment [8], the “% of control Muscarinic (M2-selective)” value is recorded as 97.5 ± 1.9%.
